Values quoted from earlier work, collected in patent publication US8765739B2, “Azetidine compound and pharmaceutical use thereof” (Japan Tobacco Inc., priority 2009, dated 2014).

What was measured:
[1] = tested on: mice with collagen-induced arthritis
[2] = tested on: rats suffering from experimental autoimmune encephalomyelitis; conditions: animal model of multiple sclerosis
[3] = tested on: bone absorption induced by metastatic cancer in rat

Q: Which “swellings and bone destructions” value [1] does the source give for `COc1cc(Oc2ccnc3cc(OC)c(OC)cc23)ccc1NC(=O)NC(C)c1nccs1` (stereo not drawn) [Ki20227] here?
A: The value was “improves swellings and bone destructions”.

Q: And the “condition of rats with experimental autoimmune encephalomyelitis” value [2]?
A: Its value is “improves the condition”.

Q: And the “bone absorption induced by metastatic cancer” value [3]?
A: The value was “improves bone absorption”.
